Data: patent publication US9404140B1, “Patterned cardiomyocyte culture on microelectrode array” (The University of Central Florida Research Foundation, Inc., priority 2009, dated 2016)
Entries after “also recorded” stand apart in the source; their conditions may differ.

Test system: patterned neonatal rat cardiomyocytes
Assay: Multielectrode extracellular recordings from patterned spontaneously beating cardiomyocytes on MEAs (drug effect)
Format: cell-based
Description: MEAs containing 60, 10 μm diameter electrodes (Multichannel Systems, Germany) were cleaned by soaking the arrays in a detergent solution for 2 hours followed by sonication for 10 minutes. The arrays were then oxygen plasma cleaned for 20 minutes. Surface modification was completed by incubation of the MEAs in a 3 mM PEG silane, 2-[Methoxypoly(ethyleneoxy)propyl]trimethoxysilane (MW=460-590, Gelest), solution in toluene, with 37% concentrated HCL added to achieve a final value of 0.08% (0.8 ml HCL/L), for 45 minutes at room temperature. The arrays were then rinsed once in toluene, twice in ethanol, twice in water and sonicated in water for 2 minutes to remove the non-covalently linked material. The arrays were air dried with nitrogen and stored in a dessicator overnight.
The MEAs were patterned by laser ablation photolithography using a deep UV (193 nm) excimer laser (Lambda Physik) at a pulse power of 230 mW and a frequency of 10 Hz for 45 seconds through a quartz photomask (Bandwidth foundry, Eveleigh, Australia). The arrays were sterilized using 70% isopropanol and then incubated with 5 μg/ml of fibronectin in a Phosphate buffered solution (Invitrogen) for 20 minutes at room temperature. The solution was removed and the surface was first rinsed with PBS, followed by the plating medium, and then dried before the cells were plated.
The neonatal rat cardiomyocyte culture was prepared using the cardiac isolation kit from Worthington[40]. All animal work was approved by the UCF IACUC and followed NIH guidelines. Briefly, two day-old rat pups were euthanized in a precharged CO2 chamber. Hearts were dissected and minced in ice cold Hanks balanced salt solution (HBSS). Cardiac myocytes were dissociated by incubation of the hearts in trypsin (100 μg/ml in HBSS) for 16 hours at 2-8° C. The hearts in the trypsin solution were briefly warmed with a trypsin inhibitor before adding collegenase (300 units/ml in L-15 medium) for 45 minutes in a water bath at 37° C. followed by mechanical trituration. The cell solution was filtered to remove any remaining tissue and centrifuged at 50 g for 5 minutes at 22° C. The cells were resuspended in high glucose Dulbecco's modified eagle medium (DMEM, Gibco/Invitrogen) supplemented with 10 ml Fetal Bovine Serum (Gibco/Invitrogen) and 1 ml penicillin streptomycin (Gibco/Invitrogen), preplated in Petri dishes and incubated at 37° C. and in 5% CO2 for 45 minutes. This was necessary to eliminate the fibroblasts. The supernatant from the Petri dishes was centrifuged at 50 g for 5 min at 22° C. The cells were then resuspended in the plating medium. The serum-free plating medium consisted of: 100 ml Ultraculture medium (Bio Whittaker Cambrex) supplemented with 10 ml B27, 1 ml L-glutamine (Gibco/Invitrogen), 1 ml Penicillin Streptomycin, 0.375 g dextrose (Fisher Scientific) in 800 μl water, 1 ml non-essential amino acids and 1 ml of Hepes buffer (Gibco/Invitrogen)[41]. Additional growth factors were also added to improve cell survival in the serum-free conditions. They included 0.1 μg/ml of L-thyroxine, 10 ng/ml of Epidermal growth factor (Sigma-aldrich) and 0.5 μg/ml of Hydrocortisone (BD biosciences). Cells were plated at a density of 1000 cells/mm^2 on the MEAs. The medium was changed 24 hours after plating. Subsequent changing of the medium was performed every third day.
The cardiac myocytes were cultured on patterned metal MEAs (Planar 10 μm electrodes, 200 μm separation, Multichannel-systems). A 60 channel amplifier (MEA1040, Multichannel-systems) was used to record electrical activity from the spontaneously beating cardiac cells. The same electrodes were also used for stimulation utilizing a stimulus generator (STG 1002, Multichannel systems). The cells were stimulated utilizing 500 mV, 1 ms wide bipolar pulses at 2 Hz. The recording medium was the same as the plating medium with the pH adjusted to 7.3 using HEPES buffer. […]

[1] = 2 μM Sparfloxacin in recording medium

Row | SMILES | Beating pattern, synchrony and conduction (in words) [1] | Field potential (FP) length [1] | Time to significant change in the spontaneous beating frequency [1] | Conduction velocity (CV) (50 μM 1-Heptanol in recording medium, spontaneously beating cells, n=4 MEAs, before treatment 0.197±0.014 m/s) | Time for propagation of the excitation wave versus value before treatment (50 μM 1-Heptanol, FPs recorded at 15 minute intervals) | Effect on CV in the cardiac myocyte monolayers (in words) (1-Heptanol, 50 μM) | Synchronicity of the beating cells (1-Heptanol, 50 μM) | Conduction velocity (CV), propagation of excitation after the drug (1-Heptanol, between electrodes 84 and 52 of the pattern, before drug 0.197 m/sec, FIG. 5)
1 | C[C@@H]1CN(c2c(F)c(N)c3c(=O)c(C(=O)O)cn(C4CC4)c3c2F)C[C@H](C)N1 [Sparfloxacin] | burst like activity with higher intra-burst frequencies and no synchrony between electrodes; also recorded: non-synchronous contractions similar to fibrillation and burst-like beating activity; also recorded: caused fibrillations which initiated a complete conduction block | increased FP length | ≤ 25 min | – | – | – | – | –
2 | CCCCCCCO [1-Heptanol] | – | – | – | 0.0066±0.0004 m/s | significantly increased | drastically decreased the CV in the cardiac myocyte monolayers without completely blocking the conduction | maintaining the synchronicity of the beating cells | 0.0066 m/sec
